Results: patent US11590117B2, “Treatment of a hematologic malignancy with 2-(4-chlorophenyl)-n-((2-(2,6-dioxopiperidin-3-yl)-1-oxoisoindolin-5-yl)methyl)-2,2-difluoroacetamide” (priority 2016, dated 2023)
Like-named read-outs stand apart in the source and are kept apart here.

Key:
Type in all cases: cell-based, human
HNT-34 cells = test: Compound 1 washout assay (glutarimide washout, viability at 72 hours); details: viability after 72 hours
Procedure: Compound 1 Washout Assay: For washout experiments, AML cell lines were plated in U-bottom 96-well plates at a density of 60,000 cells per well. All cells were treated at time zero (t=0) with Compound 1, then, at each time point, cells were resuspended in washout media containing glutarimide at 1000-fold excess over the compound working concentration (eg, 100 μM glutarimide for washout of 100 nM compound treatment). At the end of the incubation period, the plates were centrifuged for 3 minutes at 200 g, supernatant was removed, and cells were resuspended in 100 μL/well 1× Annexin V binding buffer containing Annexin V (2.5 μL/well) and 7-AAD (5 μL/well). Flow cytometry was performed using a BD FACSarray instrument and results were quantified using FlowJo software. At the same time, CTG was added to the 96-(black) well plates and processed as described above in the cell proliferation assay.
In order to determine at what time point Compound 1 causes AML cell lines to commit to apoptosis, washout experiments were performed at different time points, and the cell viability was assessed after 72 hours (see schematic in FIG. 30 A). Compound 1 (100 nM) irreversibly committed the cells to apoptosis within 8 to 16 hours of treatment (FIG. 30 B). Washing out 100 nM Compound 1 between 1 and 4 hours reduced the potency (right-shift in the EC50 curve) by ˜10-fold.

[1] = system: Bone marrow mononuclear cells (BMMCs) from high risk MDS patients; test: MDS intracellular flow cytometry, active Caspase 3; details: 24 hours exposure
Procedure: Methods. The effect of Compound 1 on high risk MDS samples was measured in an in vitro liquid culture as well as by colony assays in order to better define its effect on stem/progenitor cells. Bone marrow mononuclear cells (BMMCs) from high risk MDS patients were cultured in vitro in CellGro medium (GellGenix) supplemented with hLDL (40 μg/mL), SCF (50 ng/mL), FLT3 […] (50 ng/mL), IL-3 (10 ng/mL), IL-6 (25 ng/mL) and TPO (100 ng/mL), all from Peprotech. During culture, cells were exposed to different concentrations of Compound 1 (37, 111, 333 and 1000 nM) or DMSO control. After 24 hours, cells were washed twice to remove compound and maintained in culture up to one week, performing viable cell counting on days 1, 3 and 7. Just after compound washout, […] per condition were collected for colony forming assays and another […] were stained for intracellular flow cytometry.
For intracellular flow cytometry measurement of apoptosis cells were fixed in 1.6% paraformaldehyde, permeabilized in ice cold methanol and stained using a FITC-conjugated anti-active Caspase 3 antibody (Becton Dickinson). A FACSCanto II flow cytometer (Becton Dickinson) was used for flow cytometry data acquisition. Flow cytometry standard (FCS) files were analyzed using Infinicyt software (Cytognos).

PBMCs = test: CellTiter-Glo (CTG) cell proliferation assay, 72 hours, anti-CD3 stimulated; details: for IC50: Homo sapiens, PBMC
Procedure: Preparation of Solutions of Test Article: Compounds were plated into black 384-well plates (Corning Inc.) to a final DMSO volume of 0.1% assuming a maximal volume of 50 μL. A 10-point dose response starting at 10 μM with a 1:3 dilution was printed in duplicate by acoustic dispense using the EDC ATS-100 platform.
Cell Proliferation Assays: The effect of Compound 1 on the proliferation/viability of the hematological cell lines (Table 1 Table, Table 2 and Table 3), THLE-2, or PBMCs was assessed after 72 hours incubation using CTG (Promega), according to manufacturer's instructions. Hematological cell lines were dispensed into compound plates by a Multidrop™ Combi Reagent Dispenser (Thermo Scientific, Waltham, Mass.) at a concentration of 0.1 to 0.3×10^6 cells per mL in a 50 μL total volume. THLE-2 cells were seeded out at 1000 cells per well in 50 μL volume and incubated for 72 hours. At 72 hours, 25 μL per well of CTG was dispensed by a Multidrop™ Combi Reagent Dispenser and adenosine triphosphate (ATP) release by viable cells was measured as relative luminescence units after 30 minutes using the Envision platform.
For frozen PBMCs, cells were thawed at 37° C. for 2 minutes in RPMI with 10% FBS and cell counts and viability were measured on the ViCell as previously described. Peripheral blood mononuclear cells were washed and diluted to 1×10^6 cells per mL and dispensed by a Multidrop™ Combi Reagent Dispenser in a volume of 25 μL/well into the compound plates and incubated for 2 hours. After 2 hours, 25 μL of anti-CD3 antibody-bound beads (1 cell. 2 anti-human CD3 antibody-coated M-450 beads) were dispensed per well and incubated for a further 72 hours. After 72 hours, 15 μL of supernatants were collected for the analysis of interleukin (IL)-2 release using the Human IL-2 384-well Tissue Culture Kit (Meso Scale Diagnostics), according to the manufacturer's instructions, and the remaining cell suspension was processed with CTG.
In order to calculate the therapeutic window for Compound 1, the compound was counter-screened against the immortalized (but non-tumorigenic) human hepatocyte-derived cell line THLE-2 (Pfeifer, et al, Proc Natl Acad Sci USA 1993 90(11):5123-5127) and against primary human PBMCs. […] The Compound 1 therapeutic window for the 10 sensitive AML cell lines as compared to THLE-2 cells ranged from 4.1 (KG-1a) to 57 (HNT-34) (method 1) or from 5.7 (KG-1a) to 79.5 (HNT-34) (method 2); the Compound 1 therapeutic window as compared to PBMCs ranged from 2.6 (KG-1a) to 36 (HNT-34)), or from 1.5 (KG-1a) to 21 (HNT-34) (Table 6).
Cultures of 11 different AML cell lines were incubated 72 hours with Compound 1 at concentrations of 0.5 nM to 10 μM. Proliferation was assessed using the CellTitre-Glo® assay. Results for cultures incubated with Compound 1 were normalized to results for control cultures for each cell line. Inhibition of cell growth was also determined in THLE-2 cells at Compound 1 concentrations of 0.1 nM to 100 μM and in PBMCs at Compound 1 concentrations of 0.5 nM to […]. The Compound 1 therapeutic window was calculated using area under the curve (AUC; Activity Area [Barretina et al, Nature (2012) 483603-607] measurements (in arbitrary units) as determined using GraphPad Prism software for plots of cell proliferation vs concentration and dividing the AUC for the immortalized (but nontumorigenic) human THLE-2 hepatocyte cell line or PBMCs by the AUC for the AML cell line.
The effects of Compound 1 in healthy PBMCs were also assessed. Compound 1 was added to PBMC s from one donor at time zero and assessed at 72 hours. This was compared to PBMCs that were pre-activated and proliferating on anti-CD3 antibody-coated plates for 72 hours before Compound 1 was added and the cells were incubated for an additional 72 hours. HNT-34 cells were used as a sensitive positive control cell line. […]

O=C1CCC(N2Cc3cc(CNC(=O)C(F)(F)c4ccc(Cl)cc4)ccc3C2=O)C(=O)N1 (stereo not drawn) [Compound 1, 2-(4-chlorophenyl)-N-((2-(2,6-dioxopiperidin-3-yl)-1-oxoisoindolin-5-yl)methyl)-2,2-difluoroacetamide]
reduction of potency on washout (HNT-34 cells; washout at 8 to 16 hours): ~4 fold
reduction of potency (right-shift in the EC50 curve) on washout (HNT-34 cells; washout between 1 and 4 hours): ~10 fold
caspase 3 activation [1]: induction of apoptosis
IC50 (PBMCs; 72 h, PBMCs not pre-activated, 72 hours, read-out: CTG IC50): 100 nM
IC50 (PBMCs; 72 h, pre-activated PBMCs (72 hours on anti-CD3 plates before compound), 72 hours, CTG and viable cell count, read-out: antiproliferative IC50): > 10000 nM
IC50 (PBMCs; 72 h, primary human PBMCs, 72 hours, read-out: antiproliferative IC50): 120 nM
IC50 (PBMCs; pre-activated PBMCs, CTG and viable cell count, read-out: antiproliferative IC50): > 10000 nM
AUC Method 1 (PBMCs; PBMCs normal cells): 251.1 arbitrary units
AUC Method 2 (PBMCs; PBMCs normal cells): 145.1 arbitrary units
